Active and inactive are the calls of the source.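 Rule for the calls: active = at least 50% inhibition of LYPLA1 or LYPLA2 at 300 nM, with no off-target enzyme hit at any dose; inactive = under 50% inhibition on both enzymes, or any off-target hit.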
Tests used:
[1] = target: Acyl-protein thioesterase 1 (Homo sapiens) (UniProt O75608); test: LYPLA1/LYPLA2 inhibition and anti-target count – cell lysate, competitive ABPP, HEK293T proteome, set 2, selectivity assay for LYPLA1 inhibitor project, late-stage follow-up (AID 652018); conditions: competitive ABPP FP-PEG-Rh gel, stronger effect = higher value;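 note: 0% = DMSO-only band intensity and 100% = blank gel background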
[2] = target: Acyl-protein thioesterase 2 (Homo sapiens) (UniProt O95372); test: as above; conditions: competitive ABPP FP-PEG-Rh gel, stronger effect = higher value
Chain of Acyl-protein thioesterase 2 (Homo sapiens) (O95372 whole entry, looked up): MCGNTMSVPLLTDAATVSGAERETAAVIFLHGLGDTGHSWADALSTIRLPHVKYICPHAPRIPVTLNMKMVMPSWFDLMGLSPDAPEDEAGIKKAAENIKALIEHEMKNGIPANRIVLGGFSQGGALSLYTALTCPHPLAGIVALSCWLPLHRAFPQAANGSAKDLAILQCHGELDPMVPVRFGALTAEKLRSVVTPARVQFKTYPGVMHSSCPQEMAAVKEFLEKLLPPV

Chain of Acyl-protein thioesterase 1 (Homo sapiens) (O75608 whole entry, looked up): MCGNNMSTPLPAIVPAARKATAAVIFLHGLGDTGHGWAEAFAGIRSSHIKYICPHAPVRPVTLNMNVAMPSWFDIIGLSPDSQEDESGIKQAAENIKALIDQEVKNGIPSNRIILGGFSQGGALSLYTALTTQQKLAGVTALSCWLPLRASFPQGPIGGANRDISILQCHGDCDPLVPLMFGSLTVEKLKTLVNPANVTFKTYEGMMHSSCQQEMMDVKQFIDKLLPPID

Row | Compound | inhibition ([1]; LYPLA1, at 10 µM) | inhibition ([1]; LYPLA1, inhibition, at 0.3 µM) [%] | inhibition ([1]; LYPLA1, inhibition, at 1 µM) [%] | inhibition ([2]; LYPLA2, at 10 µM) | inhibition ([2]; LYPLA2, inhibition, at 0.3 µM) [%] | inhibition ([2]; LYPLA2, inhibition, at 1 µM) [%]
1 | O=C(CN1CCN(C(=O)n2ncc(-c3ccc(OC(F)(F)F)cc3)n2)CC1)Nc1cc(C(F)(F)F)ccc1Cl | 90% (inactive) | 30 | 30 | 95% (inactive) | 30 | 30
2 | O=C(CN1CCN(C(=O)n2nc(Br)c(Br)n2)CC1)Nc1cc(C(F)(F)F)ccc1Cl | 95% | 90 | 90 | 100% | 85 | 100
3 | COc1ccc(N2CCN(C(=O)n3nc(Br)nc3Br)CC2)cc1 | 95% (inactive) | 20 | 60 | 95% (inactive) | 10 | 30
4 | O=C(CN1CCN(C(=O)n2cc(-c3ccc(-c4ccccc4)cc3)nn2)CC1)Nc1cc(C(F)(F)F)ccc1Cl | 30% (inactive) | 30 | 30 | 30% (inactive) | 30 | 30
5 | O=C(CN1CCN(C(=O)n2cc(C(O)(c3ccccc3)c3ccccc3)nn2)CC1)Nc1cc(C(F)(F)F)ccc1Cl | 95% | 80 | 90 | 100% | 60 | 85
6 | COc1ccc(N2CCN(C(=O)n3ncc(C(O)(c4ccccc4)c4ccccc4)n3)CC2)cc1 | 95% | 95 | 95 | 100% | 75 | 100
7 | COc1ccc(N2CCN(C(=O)n3cc(C(O)(c4ccccc4)c4ccccc4)nn3)CC2)cc1 | 95% | 85 | 95 | 100% (inactive) | 20 | 95
8 | COc1ccc(N2CCN(C(=O)n3ncc(-c4ccccc4)n3)CC2)cc1 | 30% (inactive) | 20 | 30 | 30% (inactive) | 10 | 30
9 | O=C(CN1CCN(C(=O)n2ncc(-c3ccc(Br)cc3)n2)CC1)Nc1cc(C(F)(F)F)ccc1Cl | 80% | 70 | 70 | 75% | 50 | 40
10 | O=C(CN1CCN(C(=O)n2nccn2)CC1)Nc1cc(C(F)(F)F)ccc1Cl | 95% (inactive) | 30 | 60 | 95% (inactive) | 30 | 40
11 | COc1ccc(N2CCN(C(=O)n3ccnn3)CC2)cc1 | 90% (inactive) | 20 | 50 | 85% (inactive) | 10 | 30
12 | O=C(CN1CCN(C(=O)n2ncc(C(O)(c3ccccc3)c3ccccc3)n2)CC1)Nc1cc(C(F)(F)F)ccc1Cl | 95% | 95 | 95 | 100% | 100 | 100
13 | O=C(N1CCN(c2ccc(Br)cc2)CC1)n1ncc(C(O)(c2ccccc2)c2ccccc2)n1 | 100% (inactive) | 40 | 90 | 80% (inactive) | 20 | 30
14 | COc1ccc(N2CCN(C(=O)n3nc(Br)c(Br)n3)CC2)cc1 | 95% | 85 | 95 | 100% | 50 | 80
15 | COc1ccc(N2CCN(C(=O)n3nccn3)CC2)cc1 | 95% (inactive) | 20 | 80 | 100% (inactive) | 10 | 60

Other lines, results leading:

Row | inhibition ([1]; LYPLA1, at 10 µM) | inhibition ([1]; LYPLA1, inhibition, at 0.3 µM) [%] | inhibition ([1]; LYPLA1, inhibition, at 1 µM) [%] | inhibition ([2]; LYPLA2, at 10 µM) | inhibition ([2]; LYPLA2, inhibition, at 0.3 µM) [%] | inhibition ([2]; LYPLA2, inhibition, at 1 µM) [%] | Compound
16 | 30% (inactive) | 30 | 30 | 30% (inactive) | 30 | 30 | O=C(CN1CCN(C(=O)n2cncn2)CC1)Nc1cc(C(F)(F)F)ccc1Cl
17 | 95% (inactive) | 45 | 85 | 100% (inactive) | 40 | 75 | O=C(CN1CCN(C(=O)n2nc(Br)nc2Br)CC1)Nc1cc(C(F)(F)F)ccc1Cl
18 | 95% (inactive) | 20 | 75 | 95% (inactive) | 10 | 30 | COc1ccc(N2CCN(C(=O)n3cncn3)CC2)cc1
19 | 30% (inactive) | 30 | 30 | 30% (inactive) | 30 | 30 | O=C(CN1CCN(C(=O)n2ncc(-c3ccc(-c4ccccc4)cc3)n2)CC1)Nc1cc(C(F)(F)F)ccc1Cl
20 | 80% (inactive) | 30 | 40 | 30% (inactive) | 20 | 30 | O=C(N1CCN(c2ccc(Cl)c(Cl)c2)CC1)n1ncc(C(O)(c2ccccc2)c2ccccc2)n1
21 | 20% (inactive) | 10 | 10 | 20% (inactive) | 10 | 10 | COc1ccc(N2CCN(C(=O)n3ncc(-c4ccc(OC(F)(F)F)cc4)n3)CC2)cc1
22 | 80% (inactive) | 20 | 20 | 60% (inactive) | 10 | 10 | COc1ccc(N2CCN(C(=O)n3cc(-c4ccc(OC(F)(F)F)cc4)nn3)CC2)cc1
23 | 60% (inactive) | 30 | 30 | 30% (inactive) | 30 | 30 | O=C(CN1CCN(C(=O)n2cc(-c3ccc(OC(F)(F)F)cc3)nn2)CC1)Nc1cc(C(F)(F)F)ccc1Cl

Reference: PubChem BioAssay AID652018 (The Scripps Research Institute Molecular Screening Center, 2013)
